For data set [1], the system named is KRAS G12D-mediated ERK phosphorylation. The data set can be described thus: Inhibition of KRAS G12D-mediated ERK phosphorylation in AGS cells (in-cell pERK/GAPDH immunofluorescence). It is filed as cell-based. The method, then:
(§1) Day 1: AGS cells, SW480 cells, NCI H358 cells, HCT116 cells, and KP2 cells were seeded into 384-well cell culture plates and cultured overnight in a 37°C, 5% CO2 incubator.
(§2) Day 2: The compounds were added to the plates using Echo550 and incubated for 3 h in a 37°C, 5% CO2 incubator. Then, cells fixed with paraformaldehyde, permeated with methanol and blocked with a blocking solution were added. Finally, a mixed solution of primary antibodies (rabbit anti pERK, mouse anti GAPDH) was added, and the mixture was incubated overnight at 4°C.
(§3) Day 3: The mixed solution of primary antibodies was discarded, and a mixed solution of secondary antibodies (goat anti rabbit 800 CW, goat anti mouse 680 RD) was added. The resulting mixture was incubated at room temperature in the dark. Finally, the cell culture plate was washed with PBST, and then inverted for 1 minute of centrifugation. The fluorescence signal values were read with Odyssey CLx.
(§4) ERK phosphorylation was calculated according to the following formula: [formula] • Negative control: DMSO • Positive control: 10 µM Reference • IC50 value was fitted and calculated by XLFit 5.0 using the parametric formula. • Y = Bottom+(Top-Bottom)/(1+10^((LogIC50-X)*HillSlope)) • X: log value of compound concentration. • Y: average value of relative expression of p-ERK between replicate wells.

Data set [2] can be described thus: In vivo pharmacokinetic test in mice. The settings on record: single dose 30 mg/kg, plasma. As to the method: Each test compound was administered orally once to female BALB/c mice for pharmacokinetic study. The test compounds were prepared on the day of administration. The oral administration solvent: 50 mM sodium citrate (pH 5.0) + 10% captisol. The oral administration was conducted in a dose of 30 mg/kg. The animals were fasted for 10-14 h before oral administration, and the feeding was resumed 4 h after administration. Pharmacokinetic samples were collected through the orbit. The collection time points were: 15 min, 30 min, 1 h, 2 h, 4 h, 6 h, 8 h and 24 h after administration. Three whole blood samples were collected at each time point, with a collection volume of about 0.2 mL, and anticoagulated with sodium heparin. After blood samples were collected, they were immediately placed on ice and centrifuged within 1 h to isolate plasma (centrifugation conditions: 8000 rpm, 1 min, 2-8°C). The collected plasma was stored in a -20°C refrigerator before analysis. The concentrations of compounds in the plasma samples were determined using an LC-MS/MS analysis method.

The subject of data set [3] is KRAS G12V-mediated ERK phosphorylation. The data set can be described thus: Inhibition of KRAS G12V-mediated ERK phosphorylation in SW480 cells. It is filed as cell-based. The settings on record: 3 h incubation, read-out: Inhibitory activity on ERK phosphorylation (IC50) SW480-G12V. As to the method: as §1, §2, §3, §4
Data set [4] deals with KRAS G12C-mediated ERK phosphorylation. Briefly: Inhibition of KRAS G12C-mediated ERK phosphorylation in NCI H358 cells. The data set is classed as cell-based. The settings on record: Homo sapiens, 3 h incubation, read-out: Inhibitory activity on ERK phosphorylation (IC50) NCI H358-G12C. The method, then: as §1, §2, §3, §4
The subject of data set [5] is KRAS G13D-mediated ERK phosphorylation. Briefly: Inhibition of KRAS G13D-mediated ERK phosphorylation in HCT116 cells. The settings on record: Homo sapiens, HCT-116, 3 h incubation, read-out: Inhibitory activity on ERK phosphorylation (IC50) HCT116-G13D. It is filed as cell-based. As to the method:
as §1, §2, §3, §4

Data set [6] deals with KRAS G12R-mediated ERK phosphorylation. Briefly: Inhibition of KRAS G12R-mediated ERK phosphorylation in KP2 cells. It is filed as cell-based. The settings on record: 3 h incubation, read-out: Inhibitory activity on ERK phosphorylation (IC50) KP2-G12R. As to the method:
as §1, §2, §3, §4

Setting [7] is: mouse, female BALB/c mice, oral, read-out: AUC.
[8] abbreviates: mouse, female BALB/c mice, oral, read-out: Cmax.
Where [9] appears, read: AGS cells, 3 h incubation, read-out: Inhibitory activity on ERK phosphorylation (IC50) AGS-G12D.
Setting [10] is: female BALB/c mice, oral, 30 mg/kg.
Where [11] appears, read: Homo sapiens, AGS, 3 h, AGS cells, 3 h incubation, read-out: Inhibitory activity on ERK phosphorylation (IC50) AGS-G12D.
Where [12] appears, read: Homo sapiens, AGS, 3 h, read-out: Inhibitory activity on ERK phosphorylation (IC50) AGS-G12D, AGS cells, 3 h incubation.

Structures are written as SMILES. Where two headings read alike, the source gives them in different places. Where only a bound is given, the exact number is not on record here.

Usually IC50 stands for the concentration that inhibits the measured activity by half. As a reminder, the AUC is the area under the concentration-time curve, a measure of exposure. One may read the Cmax as the highest concentration seen after dosing. `N#Cc1c(N)sc2c(F)ccc(-c3c(Cl)cc4c(N5CCOCC5)nc(OC[C@@]56CCCN5[C@H](c5cc(F)c(F)c(F)c5)CC6)nc4c3F)c12` (relative stereo) [Example 17]: the IC50 in data set [1] (Homo sapiens, AGS cells, 3 h incubation, read-out: Inhibitory activity on ERK phosphorylation (IC50) AGS-G12D) came out at 41 nM. Besides, the AUC in data set [2] (setting [7]) came to 3990 ng·h/mL. The highest concentration (Cmax) in data set [2] (setting [8]) worked out at 1490 ng/mL.

Turning to `CC1(O)COCCN(c2nc(OCC34CCCN3C(c3cc(F)c(F)c(F)c3)CC4)nc3c(F)c(-c4ccc(F)c5sc(N)c(C#N)c45)c(Cl)cc23)C1` (single isomer, unassigned) [Example 9, 2-amino-4-[6-chloro-8-fluoro-4-(6-hydroxy-6-methyl-1,4-oxazepan-4-yl)-2-({[3-(3,4,5-trifluorophenyl)-2,3,5,6,7,7a-hexahydro-1H-pyrrolizin-7a-yl]methyl}oxy)quinazolin-7-yl]-7-fluorobenzo[b]thiophene-3-carbonitrile], the IC50 in data set [1] (setting [9]) was found to be 27 nM. Moreover, in data set [2] (setting [10]), the AUC was determined as 5181 ng·h/mL and the peak concentration (Cmax) was determined as 1897 ng/mL.

Turning to `CC1(O)COCCN(c2nc(OCC34CCCN3C(c3cc(F)c(F)c(F)c3)CC4)nc3c(F)c(-c4cccc5sc(N)c(C#N)c45)c(I)cc23)C1` (single isomer, unassigned) [Example 28, 2-amino-4-[6-iodo-8-fluoro-4-(6-hydroxy-6-methyl-1,4-oxazepan-4-yl)-2-({[3-(3,4,5-trifluorophenyl)-2,3,5,6,7,7a-hexahydro-1H-pyrrolizin-7a-yl]methyl}oxy)quinazolin-7-yl]benzo[b]thiophene-3-carbonitrile], the half-inhibitory concentration (IC50) in data set [1] (setting [9]) amounted to 4.2 nM. For the same compound, in data set [2] (setting [10]), the AUC was found to be 9224 ng·h/mL. Also, the Cmax in data set [2] (female, BALB/c, mouse, po, 30 mg/kg, read-out: Cmax) was found to be 3290 ng/mL.

On to `CC1(O)COCCN(c2nc(OCC34CCCN3C(c3cc(F)c(F)c(F)c3)CC4)nc3c(F)c(-c4ccc(F)c5sc(N)c(C#N)c45)c(Cl)cc23)C1` (single isomer, unassigned) [Example 13, 2-amino-4-[6-chloro-8-fluoro-4-(6-hydroxy-6-methyl-1,4-oxazepan-4-yl)-2-({[3-(3,4,5-trifluorophenyl)-2,3,5,6,7,7a-hexahydro-1H-pyrrolizin-7a-yl]methyl}oxy)quinazolin-7-yl]-7-fluorobenzo[b]thiophene-3-carbonitrile], for which the IC50 in data set [3] is 16 nM.

For `CC1(O)COCCN(c2nc(OCC34CCCN3C(c3cc(F)c(F)c(F)c3)CC4)nc3c(F)c(-c4ccc(F)c5sc(N)c(C#N)c45)c(Cl)cc23)C1` (single isomer, unassigned) [Example 10, 2-amino-4-[6-chloro-8-fluoro-4-(6-hydroxy-6-methyl-1,4-oxazepan-4-yl)-2-({[3-(3,4,5-trifluorophenyl)-2,3,5,6,7,7a-hexahydro-1H-pyrrolizin-7a-yl]methyl}oxy)quinazolin-7-yl]-7-fluorobenzo[b]thiophene-3-carbonitrile], the IC50 in data set [3] is more than 1000 nM.

On to `CC1(O)COCCN(c2nc(OCC34CCCN3C(c3cc(F)c(F)c(F)c3)CC4)nc3c(F)c(-c4ccc(F)c5sc(N)c(C#N)c45)c(Cl)cc23)C1` (single isomer, unassigned) [Example 11, 2-amino-4-[6-chloro-8-fluoro-4-(6-hydroxy-6-methyl-1,4-oxazepan-4-yl)-2-({[3-(3,4,5-trifluorophenyl)-2,3,5,6,7,7a-hexahydro-1H-pyrrolizin-7a-yl]methyl}oxy)quinazolin-7-yl]-7-fluorobenzo[b]thiophene-3-carbonitrile], for which the half-maximal inhibitory concentration (IC50) in data set [3] is more than 1000 nM.

As for `CC1(O)COCCN(c2nc(OCC34CCCN3C(c3cc(F)c(F)c(F)c3)CC4)nc3c(F)c(-c4cccc5sc(N)c(C#N)c45)c(Cl)cc23)C1` (single isomer, unassigned) [Example 18, 2-amino-4-[6-chloro-8-fluoro-4-(6-hydroxy-6-methyl-1,4-oxazepan-4-yl)-2-({[3-(3,4,5-trifluorophenyl)-2,3,5,6,7,7a-hexahydro-1H-pyrrolizin-7a-yl]methyl}oxy)quinazolin-7-yl]benzo[b]thiophene-3-carbonitrile], the IC50 in data set [1] (setting [9]) is 33 nM. In data set [2] (setting [10]), the area under the curve (AUC) came out at 6017 ng·h/mL and the maximum concentration (Cmax) is given as 2148 ng/mL.

`N#Cc1c(N)sc2c(F)ccc(-c3c(Cl)cc4c(N5CCCC(O)(C(F)(F)F)CC5)nc(OCC56CCCC5C(c5cc(F)c(F)c(F)c5)CC6)nc4c3F)c12` (racemic) [Example 5, 2-amino-4-{6-chloro-8-fluoro-4-[4-hydroxy-4-(trifluoromethyl)azepan-1-yl]-2-({[1-(3,4,5-trifluorophenyl)octahydrocyclopenta[1,2-a][5]annulen-3a-yl]methyl}oxy)quinazolin-7-yl}-7-fluorobenzo[b]thiop hene-3-carbonitrile]: the 50% inhibitory concentration (IC50) in data set [1] (setting [11]) amounted to 313 nM.

Turning to `N#Cc1c(N)sc2c(F)ccc(-c3c(Cl)cc4c(N5CC6COCC6C5)nc(OCC56CCCN5C(c5cc(F)c(F)c(F)c5)CC6)nc4c3F)c12` (racemic) [Example 8, 4-[4-(3,3a,4,5,6,6a-hexahydro-1H-furano[4,3-c]pyrrolo-5-yl)-6-chloro-8-fluoro-2-({[3-(3,4,5-trifluorophenyl)-2,3,5,6,7,7a-hexahydro-1H-pyrrolizin-7a-yl]methyl}oxy)quinazolin-7-yl]-2-amino-7-fluorobenzo[b]thiophene-3-carbonitrile], in data set [1] (setting [12]), the half-inhibitory concentration (IC50) was more than 1000 nM.

For `CC1(O)COCCN(c2nc(OCC34CCCN3C(c3cc(F)c(F)c(F)c3)CC4)nc3c(F)c(-c4cccc5sc(N)c(C#N)c45)c(Cl)cc23)C1` (single isomer, unassigned) [Example 19, 2-amino-4-[6-chloro-8-fluoro-4-(6-hydroxy-6-methyl-1,4-oxazepan-4-yl)-2-({[3-(3,4,5-trifluorophenyl)-2,3,5,6,7,7a-hexahydro-1H-pyrrolizin-7a-yl]methyl}oxy)quinazolin-7-yl]benzo[b]thiophene-3-carbonitrile], in data set [1] (setting [9]), the IC50 is more than 1000 nM.

As for `CC1(O)COCCN(c2nc(OCC34CCCN3C(c3cc(F)c(F)c(F)c3)CC4)nc3c(F)c(-c4cccc5sc(N)c(C#N)c45)c(I)cc23)C1` (single isomer, unassigned) [Example 29, 2-amino-4-[6-iodo-8-fluoro-4-(6-hydroxy-6-methyl-1,4-oxazepan-4-yl)-2-({[3-(3,4,5-trifluorophenyl)-2,3,5,6,7,7a-hexahydro-1H-pyrrolizin-7a-yl]methyl}oxy)quinazolin-7-yl]benzo[b]thiophene-3-carbonitrile], the IC50 in data set [1] (setting [9]) was determined as 33 nM.

For the compound `N#Cc1c(N)sc2c(F)ccc(-c3c(Cl)cc4c(N5CCC6(CC5)CC(O)CO6)nc(OCC56CCCN5C(c5cc(F)c(F)c(F)c5)CC6)nc4c3F)c12` (racemic) [Example 14, 8-[7-(2-amino-7-fluorobenzo[b]thiophen-4-yl)-6-chloro-8-fluoro-2-({[3-(3,4,5-trifluorophenyl)-2,3,5,6,7,7a-hexahydro-1H-pyrrolizin-7a-yl]methyl}oxy)quinazolin-4-yl]-8-aza-1-oxaspiro[4.5]de c-3-ol], the IC50 in data set [1] (setting [12]) turned out to be 758 nM.

For `CC1(O)COCCN(c2nc(OCC34CCCN3C(c3cc(F)c(F)c(F)c3)CC4)nc3c(F)c(-c4cccc5sc(N)c(C#N)c45)c(Br)cc23)C1` (centres unmarked) [Example 23, 2-amino-4-[6-bromo-8-fluoro-4-(6-hydroxy-6-methyl-1,4-oxazepan-4-yl)-2-({[3-(3,4,5-trifluoropheny 1)-2,3,5,6,7,7a-hexahydro-1H-pyrrolizin-7a-yl]methyl}oxy)quinazolin-7-yl]benzo[b]thiophene-3-carb onitrile], the IC50 was found to be 4.2 nM in data set [1] (setting [11]), 4.9 nM in data set [4], 94 nM in data set [5] and 663 nM in data set [6]. In addition, the AUC in data set [2] (setting [7]) was 9230 ng·h/mL. In addition, the highest concentration (Cmax) in data set [2] (setting [8]) came out at 3620 ng/mL.
